#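 Protocol summary: plate cells (96-well), add compound at 5 concentrations, incubate 48 h, interpolate endpoints linearly. TGI denotes the concentration required for complete inhibition of growth.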
# Experiments:
# Assay in all cases: NCI anticancer screen, dose series, 48 h
# SK-MEL-5 melanoma = test system: SK-MEL-5 melanoma
# HCT-116 colon = test system: HCT-116 colon
# A549 NSCLC = test system: A549 NSCLC
# ACHN renal = test system: ACHN renal
# OVCAR-3 ovarian = test system: OVCAR-3 ovarian
# COLO 205 colon = test system: COLO 205 colon
# SK-MEL-2 melanoma = test system: SK-MEL-2 melanoma
# M19-MEL melanoma = test system: M19-MEL melanoma
# SR leukemia = test system: SR leukemia
# SNB-78 CNS = test system: SNB-78 CNS
# HCC-2998 colon = test system: HCC-2998 colon
# SF-268 CNS = test system: SF-268 CNS
# LXFL 529 NSCLC = test system: LXFL 529 NSCLC
# KM20L2 colon = test system: KM20L2 colon
# HCT-15 colon = test system: HCT-15 colon
# SF-539 CNS = test system: SF-539 CNS
# UO-31 renal = test system: UO-31 renal
# SF-295 CNS = test system: SF-295 CNS
# KM12 colon = test system: KM12 colon
# MOLT-4 leukemia = test system: MOLT-4 leukemia
# 786-0 renal = test system: 786-0 renal
# M14 melanoma = test system: M14 melanoma
# SW-620 colon = test system: SW-620 colon
# DMS 114 small cell lung = test system: DMS 114 small cell lung
# NCI-H226 lung = test system: NCI-H226 lung
# XF 498 CNS = test system: XF 498 CNS
# SK-MEL-28 melanoma = test system: SK-MEL-28 melanoma
# SN12C renal = test system: SN12C renal
# DMS 273 small cell lung = test system: DMS 273 small cell lung
# TK-10 renal = test system: TK-10 renal
# OVCAR-4 ovarian = test system: OVCAR-4 ovarian
# RXF 393 renal = test system: RXF 393 renal
# LOX IMVI melanoma = test system: LOX IMVI melanoma
# NCI-H460 lung = test system: NCI-H460 lung
# K-562 leukemia = test system: K-562 leukemia
# DLD-1 colon = test system: DLD-1 colon
# HT29 colon = test system: HT29 colon
# IGROV1 ovarian = test system: IGROV1 ovarian
# SNB-19 CNS = test system: SNB-19 CNS
# EKVX NSCLC = test system: EKVX NSCLC
# U251 CNS = test system: U251 CNS
# HOP-62 NSCLC = test system: HOP-62 NSCLC
# CCRF-CEM leukemia = test system: CCRF-CEM leukemia
# NCI-H522 lung = test system: NCI-H522 lung
# OVCAR-8 ovarian = test system: OVCAR-8 ovarian
# UACC-62 melanoma = test system: UACC-62 melanoma
# HL-60(TB) leukemia = test system: HL-60(TB) leukemia
# OVCAR-5 ovarian = test system: OVCAR-5 ovarian
# SK-OV-3 ovarian = test system: SK-OV-3 ovarian
# NCI-H23 lung = test system: NCI-H23 lung
# MALME-3M melanoma = test system: MALME-3M melanoma
# RPMI-8226 leukemia = test system: RPMI-8226 leukemia
# SNB-75 CNS = test system: SNB-75 CNS
# CAKI-1 renal = test system: CAKI-1 renal
# HOP-92 NSCLC = test system: HOP-92 NSCLC
# DU-145 prostate = test system: DU-145 prostate
# BT-549 breast = test system: BT-549 breast
# A498 renal = test system: A498 renal
# MDA-MB-435 = test system: MDA-MB-435
# T-47D breast = test system: T-47D breast
# HS 578T breast = test system: HS 578T breast
# UACC-257 melanoma = test system: UACC-257 melanoma
# MCF7 breast = test system: MCF7 breast
smiles,measurement,setting,value
CN(C)CCNC(=O)c1ccc(Cl)c2c(Nc3ccc(S(=O)(=O)N=C(N)N)cc3)c3ccccc3nc12,TGI,SK-MEL-5 melanoma,25.5 µM
same,TGI,HCT-116 colon,17.8 µM
same,TGI,A549 NSCLC,17.2 µM
same,TGI,ACHN renal,18 µM
same,TGI,OVCAR-3 ovarian,30.6 µM
same,TGI,COLO 205 colon,17.9 µM
same,TGI,SK-MEL-2 melanoma,24.5 µM
same,TGI,M19-MEL melanoma,17.3 µM
same,TGI,SR leukemia,9.06 µM
same,TGI,SNB-78 CNS,48.1 µM
same,TGI,HCC-2998 colon,21.3 µM
same,TGI,SF-268 CNS,19.7 µM
same,TGI,LXFL 529 NSCLC,18.4 µM
same,TGI,KM20L2 colon,19.2 µM
same,TGI,HCT-15 colon,18.6 µM
same,TGI,SF-539 CNS,14.7 µM
same,TGI,UO-31 renal,3.23 µM
same,TGI,SF-295 CNS,15.2 µM
same,TGI,KM12 colon,20.7 µM
same,TGI,MOLT-4 leukemia,2.66 µM
same,TGI,786-0 renal,35 µM
same,TGI,M14 melanoma,53.6 µM
same,TGI,SW-620 colon,14.9 µM
same,TGI,DMS 114 small cell lung,7.98 µM
same,TGI,NCI-H226 lung,6.67 µM
same,TGI,XF 498 CNS,27.1 µM
same,TGI,SK-MEL-28 melanoma,26.6 µM
same,TGI,SN12C renal,16.6 µM
same,TGI,DMS 273 small cell lung,8.63 µM
same,TGI,TK-10 renal,38.7 µM
same,TGI,OVCAR-4 ovarian,5.24 µM
same,TGI,RXF 393 renal,19.3 µM
same,TGI,LOX IMVI melanoma,5.5 µM
same,TGI,NCI-H460 lung,10.2 µM
same,TGI,K-562 leukemia,16.9 µM
same,TGI,DLD-1 colon,18.4 µM
same,TGI,HT29 colon,10.3 µM
same,TGI,IGROV1 ovarian,18.5 µM
same,TGI,SNB-19 CNS,6.6 µM
same,TGI,EKVX NSCLC,27.5 µM
same,TGI,U251 CNS,16.4 µM
same,TGI,HOP-62 NSCLC,26.4 µM
same,TGI,CCRF-CEM leukemia,16.9 µM
same,TGI,NCI-H522 lung,3.79 µM
same,TGI,OVCAR-8 ovarian,15.2 µM
same,TGI,UACC-62 melanoma,20.3 µM
same,TGI,HL-60(TB) leukemia,6.27 µM
COc1ccc2c(c1)O[C@@H]1c3ccc(OC)cc3OC[C@H]21,TGI,OVCAR-5 ovarian,> 100 µM
same,TGI,SK-MEL-5 melanoma,39.2 µM
same,TGI,HCT-116 colon,> 100 µM
same,TGI,A549 NSCLC,> 100 µM
same,TGI,ACHN renal,> 100 µM
same,TGI,OVCAR-3 ovarian,> 100 µM
same,TGI,SK-MEL-2 melanoma,89.6 µM
same,TGI,SK-OV-3 ovarian,> 100 µM
same,TGI,M19-MEL melanoma,> 100 µM
same,TGI,SR leukemia,97.5 µM
same,TGI,NCI-H23 lung,> 100 µM
same,TGI,SNB-78 CNS,> 100 µM
same,TGI,HCC-2998 colon,> 100 µM
same,TGI,SF-268 CNS,> 100 µM
same,TGI,LXFL 529 NSCLC,> 100 µM
same,TGI,MALME-3M melanoma,> 100 µM
same,TGI,HCT-15 colon,> 100 µM
same,TGI,SF-539 CNS,> 100 µM
same,TGI,UO-31 renal,77.6 µM
same,TGI,SF-295 CNS,> 100 µM
same,TGI,RPMI-8226 leukemia,> 100 µM
same,TGI,KM12 colon,> 100 µM
same,TGI,MOLT-4 leukemia,50.3 µM
same,TGI,786-0 renal,72.1 µM
same,TGI,M14 melanoma,> 100 µM
same,TGI,SW-620 colon,> 100 µM
same,TGI,SNB-75 CNS,51.4 µM
same,TGI,DMS 114 small cell lung,58.9 µM
same,TGI,CAKI-1 renal,> 100 µM
same,TGI,NCI-H226 lung,69.6 µM
same,TGI,HOP-92 NSCLC,79.7 µM
same,TGI,XF 498 CNS,> 100 µM
same,TGI,SK-MEL-28 melanoma,> 100 µM
same,TGI,SN12C renal,> 100 µM
same,TGI,DMS 273 small cell lung,> 100 µM
same,TGI,TK-10 renal,> 100 µM
same,TGI,OVCAR-4 ovarian,> 100 µM
same,TGI,RXF 393 renal,51 µM
same,TGI,LOX IMVI melanoma,83.7 µM
same,TGI,NCI-H460 lung,82 µM
same,TGI,K-562 leukemia,57.3 µM
same,TGI,DLD-1 colon,> 100 µM
same,TGI,IGROV1 ovarian,> 100 µM
same,TGI,SNB-19 CNS,> 100 µM
same,TGI,U251 CNS,> 100 µM
same,TGI,HOP-62 NSCLC,> 100 µM
same,TGI,CCRF-CEM leukemia,80.5 µM
same,TGI,NCI-H522 lung,51.6 µM
same,TGI,OVCAR-8 ovarian,> 100 µM
same,TGI,UACC-62 melanoma,> 100 µM
same,TGI,HL-60(TB) leukemia,> 100 µM
O=C(Nc1cccc(C(F)(F)F)c1)C(=O)C(C(=O)c1ccc2ccccc2c1)C1OC(=O)c2ccccc21 (stereo unspecified),TGI,OVCAR-5 ovarian,31.5 µM
same,TGI,SK-MEL-5 melanoma,24.4 µM
same,TGI,HCT-116 colon,21.2 µM
same,TGI,A549 NSCLC,78.3 µM
same,TGI,ACHN renal,73.5 µM
same,TGI,OVCAR-3 ovarian,55.6 µM
same,TGI,COLO 205 colon,38.9 µM
same,TGI,SK-MEL-2 melanoma,15.8 µM
same,TGI,SK-OV-3 ovarian,> 100 µM
same,TGI,M19-MEL melanoma,31.1 µM
same,TGI,SR leukemia,16 µM
same,TGI,NCI-H23 lung,17.7 µM
same,TGI,SNB-78 CNS,26.6 µM
same,TGI,HCC-2998 colon,23.5 µM
same,TGI,SF-268 CNS,49.1 µM
same,TGI,LXFL 529 NSCLC,20.8 µM
same,TGI,KM20L2 colon,33.5 µM
same,TGI,MALME-3M melanoma,17 µM
same,TGI,HCT-15 colon,32.2 µM
same,TGI,SF-539 CNS,10.2 µM
same,TGI,UO-31 renal,20.6 µM
same,TGI,SF-295 CNS,23.4 µM
same,TGI,RPMI-8226 leukemia,60.6 µM
same,TGI,KM12 colon,29 µM
same,TGI,DU-145 prostate,81.2 µM
same,TGI,MOLT-4 leukemia,11.1 µM
same,TGI,786-0 renal,15.9 µM
same,TGI,M14 melanoma,34.4 µM
same,TGI,SW-620 colon,37 µM
same,TGI,SNB-75 CNS,30.6 µM
same,TGI,BT-549 breast,93.9 µM
same,TGI,DMS 114 small cell lung,17.1 µM
same,TGI,A498 renal,20.3 µM
same,TGI,CAKI-1 renal,> 100 µM
same,TGI,NCI-H226 lung,11.5 µM
same,TGI,HOP-92 NSCLC,> 100 µM
same,TGI,XF 498 CNS,12.3 µM
same,TGI,SK-MEL-28 melanoma,15.7 µM
same,TGI,SN12C renal,36.9 µM
same,TGI,DMS 273 small cell lung,> 100 µM
same,TGI,TK-10 renal,48 µM
same,TGI,MDA-MB-435,> 100 µM
same,TGI,OVCAR-4 ovarian,> 42.7 µM
same,TGI,RXF 393 renal,11.9 µM
same,TGI,LOX IMVI melanoma,20.7 µM
same,TGI,NCI-H460 lung,36.3 µM
same,TGI,T-47D breast,84.8 µM
same,TGI,K-562 leukemia,> 73.7 µM
same,TGI,HS 578T breast,45.2 µM
same,TGI,DLD-1 colon,23.4 µM
same,TGI,HT29 colon,38.2 µM
same,TGI,IGROV1 ovarian,71.6 µM
same,TGI,SNB-19 CNS,25.8 µM
same,TGI,EKVX NSCLC,27.5 µM
same,TGI,U251 CNS,17.4 µM
same,TGI,HOP-62 NSCLC,36.8 µM
same,TGI,CCRF-CEM leukemia,29.1 µM
same,TGI,NCI-H522 lung,25.6 µM
same,TGI,OVCAR-8 ovarian,35.6 µM
same,TGI,UACC-62 melanoma,19.1 µM
same,TGI,UACC-257 melanoma,15.9 µM
same,TGI,MCF7 breast,45.8 µM
same,TGI,HL-60(TB) leukemia,40.9 µM

# Reference: PubChem BioAssay (NCI)
